Measurements published in the Kinase Knowledgebase extract (Sharma et al. 2016).
“And” between values parts separate entries of the source, which are not always exact repeats. Identical values can stand only once.

molecular target: PIK3CD (Human) (UniProt O00329); test: Enzyme Assay
Sequence (O00329 whole entry, looked up): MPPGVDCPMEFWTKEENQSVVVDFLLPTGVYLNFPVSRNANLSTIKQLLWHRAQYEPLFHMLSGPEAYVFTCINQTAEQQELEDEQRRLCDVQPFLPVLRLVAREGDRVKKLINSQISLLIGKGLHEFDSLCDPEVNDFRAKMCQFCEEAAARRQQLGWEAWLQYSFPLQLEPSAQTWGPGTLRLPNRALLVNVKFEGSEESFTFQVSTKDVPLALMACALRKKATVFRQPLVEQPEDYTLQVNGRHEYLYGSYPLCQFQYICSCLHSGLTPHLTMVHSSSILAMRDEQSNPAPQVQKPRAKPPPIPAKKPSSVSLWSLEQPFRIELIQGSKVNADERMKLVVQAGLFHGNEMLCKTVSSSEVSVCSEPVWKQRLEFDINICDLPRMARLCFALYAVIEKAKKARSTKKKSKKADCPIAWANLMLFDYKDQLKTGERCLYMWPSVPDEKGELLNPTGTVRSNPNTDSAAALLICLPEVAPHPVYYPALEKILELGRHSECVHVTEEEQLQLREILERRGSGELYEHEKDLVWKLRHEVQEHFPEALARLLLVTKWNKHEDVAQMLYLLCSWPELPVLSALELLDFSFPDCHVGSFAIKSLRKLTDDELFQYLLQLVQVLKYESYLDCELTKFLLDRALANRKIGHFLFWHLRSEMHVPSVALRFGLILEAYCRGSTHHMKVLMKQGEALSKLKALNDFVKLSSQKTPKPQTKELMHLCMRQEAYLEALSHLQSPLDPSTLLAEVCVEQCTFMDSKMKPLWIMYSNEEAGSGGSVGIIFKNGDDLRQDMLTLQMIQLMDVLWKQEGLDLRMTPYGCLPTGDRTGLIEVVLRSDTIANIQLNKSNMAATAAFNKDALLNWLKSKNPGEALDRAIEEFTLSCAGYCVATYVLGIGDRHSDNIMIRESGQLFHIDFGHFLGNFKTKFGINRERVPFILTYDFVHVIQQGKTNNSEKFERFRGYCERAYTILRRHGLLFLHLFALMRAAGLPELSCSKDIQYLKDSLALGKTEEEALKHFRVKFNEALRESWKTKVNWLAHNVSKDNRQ

| SMILES | IC50 |
| --- | --- |
| CCn1ncc(-c2nc3c(O[C@H]4CCN(S(=O)(=O)C(C)C)C4)ncnc3n2C)c1C | 530 nM |
| CCn1ncc(-c2nc3c(O[C@H]4CCN(C(=O)C5CCOCC5)C4)ncnc3n2C)c1C | 4.3 nM |
| CCn1ncc(-c2nc3c(O[C@H]4CCN(C(=O)c5cnn(C)c5)C4)ncnc3n2C)c1C | 14 nM |
| CCNC(=O)c1nc2c(O[C@H]3CCN(C(=O)OC(C)(C)C)C3)ncnc2n1CC | 310 nM |
| CCn1ncc(-c2nc3c(O[C@H]4CCN(C(=O)C5CC(=O)N(C(C)C)C5)C4)ncnc3n2C)c1C (some centres not stated) | 10 nM |
| CCn1ncc(-c2nc3c(O[C@H]4CCN(C(=O)c5cc6occc6[nH]5)C4)ncnc3n2C)c1C | 210 nM |
| CCn1ncc(-c2nc3c(O[C@H]4CCN(S(=O)(=O)c5cn(C)cn5)C4)ncnc3n2C)c1C | 1500 nM |
| CCn1c(-c2cnc(C)nc2)nc2c(OC3(C)CCN(C(=O)C4CC4)C3)ncnc21 (configuration not stated) | 8.7 nM |
| CCn1c(-c2cnc(OC)c(F)c2)nc2c(O[C@H]3CCN(C(=O)C4CCOCC4)C3)ncnc21 | < 1 nM |
| CCn1ncc(-c2nc3c(O[C@H]4CCN(C(=O)c5coc(C)n5)C4)ncnc3n2C)c1C | 6.5 nM |
| CCn1c(-c2cnc(C)nc2)nc2c(O[C@H]3CCN(C(=O)N4CC(F)C4)C3)ncnc21 | 5.1 nM |
| CCN(C)C(=O)N1CC[C@H](Oc2ncnc3c2nc(-c2cnc(C)nc2)n3CC)C1 | 10 nM |
| CCn1c(-c2cnc(C)nc2)nc2c(O[C@@H]3CN(C(=O)OC(C)(C)C)C[C@H]3F)ncnc21.CCn1c(-c2cnc(C)nc2)nc2c(O[C@H]3CN(C(=O)OC(C)(C)C)C[C@@H]3F)ncnc21 | 3.3 nM |
| CCn1c(-c2cnc(C)nc2)nc2c(O[C@H]3CCN(S(=O)(=O)CC)C3)ncnc21 | 170 nM |
| CCn1ncc(-c2nc3c(S[C@H]4CCN(C(=O)c5ccn(C)n5)C4)ncnc3n2C)c1C | 19 nM |
| CCn1c(-c2ccc(OC(F)F)nc2)nc2c(O[C@H]3CCN(C(=O)OC(C)(C)C)C3)ncnc21 | 15 nM |
| CCn1ncc(-c2nc3c(O[C@H]4CCN(C(=O)c5ccnc(C)c5)C4)ncnc3n2C)c1C | 25 nM |
| CCn1ncc(-c2nc3c(O[C@H]4CCN(C(=O)C(C)(C)C)C4)ncnc3n2C)c1C | 22 nM |
| CCn1c(-c2cnc(C)nc2)nc2c(O[C@H]3CCN(C(=O)OC(C)(C)C)[C@@H]3C)ncnc21 | 4 nM |
| CCc1oncc1C(=O)N1CC[C@H](Oc2ncnc3c2nc(-c2cnn(CC)c2C)n3C)C1 | 27 nM |
| CCC(=O)N1CC[C@H](Oc2ncnc3c2nc(-c2cnc(C(C)(C)C)s2)n3C)C1 | 1.6 nM |

| SMILES | IC50 |
| --- | --- |
| CCn1c(-c2cnc(C)nc2)nc2c(O[C@H]3CCN(C(=O)N4CCC(C)(C)C4)C3)ncnc21 | 3.8 nM |
| CCn1ncc(-c2nc3c(O[C@H]4CCN(C(=O)c5cnon5)C4)ncnc3n2C)c1C | 41 nM |
| CCn1ncc(-c2nc3c(O[C@H]4CCN(C(=O)c5ccno5)C4)ncnc3n2C)c1C | 4.7 nM |
| CCn1ncc(-c2nc3c(O[C@H]4CCN(C(=O)c5cnoc5C)C4)ncnc3n2C)c1C | 36 nM |
| CCn1ncc(-c2nc3c(O[C@H]4CCN(C(=O)c5cocn5)C4)ncnc3n2C)c1C | 19 nM |
| CCn1ncc(-c2nc3c(O[C@H]4CCN(C(=O)c5nnc6n5CCCC6)C4)ncnc3n2C)c1C | 240 nM |
| CCn1c(-c2cnc(C)nc2)nc2c(O[C@H]3CCN(C(=O)OCCN(C)C)C3)ncnc21 | 38 nM |
| CCn1c(-c2cnc(N(C)C)nc2)nc2c(O[C@H]3CCN(C(=O)C4CC4)C3)ncnc21 | 23 nM |
| CCn1c(-c2cnc(OC)c(F)c2)nc2c(O[C@H]3CCN(C(=O)c4cncn4C)C3)ncnc21 | 1.5 nM |
| CCn1ncc(-c2nc3c(O[C@H]4CCN(C(=O)C(C)C)C4)ncnc3n2C)c1C | 4 nM |
| CCC(=O)N1CC[C@H](Oc2ncnc3c2nc(-c2ccc(OC)c(F)c2)n3C)C1 | 6.4 nM |
| CCCn1c(-c2cnn(CC)c2C)nc2c(O[C@H]3CCN(C(=O)CC)C3)ncnc21 | 58 nM |
| CCC(=O)N1CC[C@H](Oc2ncnc3c2nc(C(F)F)n3CC)C1 | 100 nM |
| CCn1c(N(C)C(C)C)nc2c(O[C@H]3CCN(C(=O)OC(C)(C)C)C3)ncnc21 | 580 nM |
| CCn1ncc(-c2nc3c(OC4CN(C(=O)OC(C)(C)C)C4)ncnc3n2C)c1C | 85 nM |
| CCn1ncc(-c2nc3c(O[C@H]4CCN(c5ncnc6sc(C)cc56)C4)ncnc3n2C)c1C | 5.2 nM |
| Cn1cnc2c(O[C@H]3CCN(C(=O)OC(C)(C)C)C3)ncnc21 | 1400 nM |
| CCn1ncc(-c2nc3c(O[C@H]4CCN(C(=O)c5nnc(N(C)C)o5)C4)ncnc3n2C)c1C | 68 nM |
| CCn1c(-c2cnc(C)nc2)nc2c(O[C@H]3CCN(C(=O)C4[C@@H](C)[C@@H]4C)C3)ncnc21 (some centres not stated) | 13 nM |
| CCn1ncc(-c2nc3c(O[C@H]4CCN(C(=O)c5cc(C(F)(F)F)nn5C)C4)ncnc3n2C)c1C | 26 nM |
| CCn1c(-c2cnc(C)nc2)nc2c(O[C@H]3CCN(C(=O)N4CCC4)C3)ncnc21 | 1.3 nM |

| SMILES | IC50 |
| --- | --- |
| CCn1ncc(-c2nc3c(O[C@H]4CCN(C(=O)c5cccnc5)C4)ncnc3n2C)c1C | 19 nM |
| CCC(=O)N1CC[C@H](Oc2ncnc3c2nc(-c2ccc(OC)c(C(F)(F)F)c2)n3C)C1 | 2.5 nM |
| CCn1ncc(-c2nc3c(O[C@H]4CCN(C(=O)CN5CCCC5=O)C4)ncnc3n2C)c1C | 480 nM |
| CCn1c(-c2ccc(OC)nc2)nc2c(O[C@H]3CCN(C(=O)C(C)C)C3)ncnc21 | 2.1 nM |
| CCn1ncc(-c2nc3c(O[C@H]4CCN(C(=O)C5CC(=O)N(C)C5)C4)ncnc3n2C)c1C (some centres not stated) | 30 nM |
| CCn1ncc(-c2nc3c(O[C@H]4CCN(C(=O)c5cc(C)on5)C4)ncnc3n2C)c1C | 12 nM |
| CCn1c(-c2ccc(C(F)(F)F)nc2)nc2c(O[C@H]3CCN(C(=O)C4CC4)C3)ncnc21 | 3 nM |
| CCC(=O)N1CC[C@H](Oc2ncnc3c2nc(-c2cnn4c2CCC4)n3C)C1 | 23 nM |
| CN(C)c1ccc(-c2nc3c(O[C@H]4CCN(C(=O)OC(C)(C)C)C4)ncnc3n2C)cn1 | 65 nM |
| CCn1c(-c2ccc(OC)cn2)nc2c(O[C@H]3CCN(C(=O)C4CC4)C3)ncnc21 | 240 nM |
| CCC(=O)N1CCC(Oc2ncnc3c2nc(-c2cnn(CC)c2C)n3C)CC1 | 800 nM |
| CCC(=O)N1CC[C@H](Oc2ncnc3c2nc(-c2cnc(C(C)(C)C)s2)n3CC)C1 | 2.2 nM |
| CCn1ncc(-c2nc3c(O[C@@H]4CC[C@H](n5c(=O)[nH]c6ncccc65)C4)ncnc3n2C)c1C | 120 nM |
| CCn1c(-c2cnc(OC)c(C)c2)nc2c(O[C@H]3CCN(C(=O)C4CC4)C3)ncnc21 | < 1 nM |
| CCC(=O)N1CC[C@H](Oc2ncnc3c2nc(-c2cc(F)cc(NS(C)(=O)=O)c2)n3C)C1 | 10 nM |
| CCn1c(-c2cnc(C)nc2)nc2c(O[C@H]3CCN(c4cccc(F)c4)C3)ncnc21 | 2.2 nM |
| CCn1ncc(-c2nc3c(O[C@H]4CCN(S(=O)(=O)C(F)(F)F)C4)ncnc3n2C)c1C | 1000 nM |
| CCn1ncc(-c2nc3c(O[C@H]4CCN(C(=O)C5CCc6nnnn65)C4)ncnc3n2C)c1C (some centres not stated) | 23 nM |
| CCn1c(-c2cnc(C)nc2)nc2c(O[C@H]3CCN(C(=O)C4[C@@H](C)[C@H]4C)C3)ncnc21 (some centres not stated) | 12 nM |
| CCn1c(-c2cnc(C)nc2)nc2c(O[C@H]3CCN(C(=O)N4CCC(CO)C4)C3)ncnc21 (some centres not stated) | 9.5 nM |
| COc1ncc(-c2nc3c(O[C@H]4CCN(C(=O)OC(C)(C)C)C4)ncnc3n2C)cc1C | 2.6 nM |

| SMILES | IC50 |
| --- | --- |
| CCn1ncc(-c2nc3c(OC4CCN(C(=O)COC)C4)ncnc3n2C)c1C (configuration not stated) | 77 nM |
| CCn1c(-c2ccc(OC)nc2)nc2c(O[C@H]3CCN(C(=O)C4CC(F)(F)C4)C3)ncnc21 | < 1 nM |
| CCn1ncc(-c2nc3c(O[C@H]4CCN(C(=O)c5cc(C)n(C)c5C)C4)ncnc3n2C)c1C | 20 nM |
| CCn1ncc(-c2nc3c(S[C@H]4CCN(C(=O)OC(C)(C)C)C4)ncnc3n2C)c1C | 23 nM |
| CCn1ncc(-c2nc3c(O[C@H]4CCN(C(=O)C5CC5)C4)ncnc3n2C)c1C | 6.3 nM |
| CCn1ncc(-c2nc3c(O[C@H]4CCN(C(=O)c5nnc(C)o5)C4)ncnc3n2C)c1C | 31 nM |
| CCn1ncc(-c2nc3c(OC4CCN(C(=O)C5CCCCC5)C4)ncnc3n2C)c1C (configuration not stated) | 22 nM |
| CCn1ncc(-c2nc3c(OC4CCN(C(=O)CC5CCOCC5)C4)ncnc3n2C)c1C (configuration not stated) | 31 nM |
| Cn1c(-c2ccc(O)cc2)nc2c(O[C@H]3CCN(C(=O)OC(C)(C)C)C3)ncnc21 | 98 nM |
| CCn1ncc(-c2nc3c(O[C@H]4CCN(C(=O)c5cc(C)n(C)n5)C4)ncnc3n2C)c1C | 150 nM |
| CCn1ncc(-c2nc3c(O[C@H]4CCN(Cc5ccc(N(C)C)cc5)C4)ncnc3n2C)c1C | 3100 nM |
| CCn1c(-c2cnc(C)nc2)nc2c(O[C@H]3CCN(C(=O)[C@H]4CCC[C@H]4N)C3)ncnc21 | 25 nM |
| CCn1ncc(-c2nc3c(OC4CCN(C(=O)C5CCCC5)C4)ncnc3n2C)c1C (configuration not stated) | 9.4 nM |
| CCn1ncc(-c2nc3c(S[C@H]4CCN(C(=O)C5CCOCC5)C4)ncnc3n2C)c1C | 18 nM |
| Cn1c(-c2cnc(C(C)(C)C)s2)nc2c(O[C@H]3CCN(C(=O)OC(C)(C)C)C3)ncnc21 | 6.9 nM |
| CCn1c(-c2cnc(C)nc2)nc2c(O[C@H]3C[C@@H](NC(=O)OC(C)(C)C)C3)ncnc21 | 96 nM and 220 nM |
| CCn1c(-c2cnc(C)nc2)nc2c(O[C@H]3CCCN(c4ccccn4)C3)ncnc21 | 73 nM |
| CCC(=O)N1CC[C@H](Oc2ncnc3c2nc(-c2ccc(C)nc2)n3C)C1 | 66 nM |
| CCn1ncc(-c2nc3c(O[C@H]4CCN(C(=O)c5nc(C)oc5C)C4)ncnc3n2C)c1C | 7.2 nM |
